Measurements published in US20110301142A1, “ANTAGONISTS OF LYSOPHOSPHATIDIC ACID RECEPTORS” (priority 2008, published 2011).

Legend:
human LPA1 = target: T1, human LPA1 (Homo sapiens, UniProt Q92633); test: LPA1 calcium flux assay (HLPA1 Ca Flux); format: cell-based; conditions: Human LPA1 expressing CHO cells, stimulated with 10 nM LPA
T1 construct: the full-length cDNA for human LPA1 was obtained by PCR of the reverse transcription reaction; expressed in transfected cells
Summary of the method: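 CHO cells stably expressing cloned human LPA1, serum-starved overnight and loaded with Calcium 4 dye, were preincubated 30 min at room temperature with compound. Cells were then challenged with 10 nM LPA and intracellular Ca2+ measured; IC50 values came from titration curves.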

human LPA3 = target: T2, human LPA3 (Homo sapiens, UniProt Q9UBY5); test: LPA3 calcium flux assay; format: cell-based; conditions: Human LPA3 expressing CHO cells, stimulated with 10 nM LPA; read-out: HLPA3 Ca Flux IC50
T2 construct: The full-length cDNA fragment for human LPA3 was obtained by PCR from the vector; expressed in transfected cells; cDNA from the Missouri S&T cDNA Resource Center
T2 sequence (Q9UBY5 1-353): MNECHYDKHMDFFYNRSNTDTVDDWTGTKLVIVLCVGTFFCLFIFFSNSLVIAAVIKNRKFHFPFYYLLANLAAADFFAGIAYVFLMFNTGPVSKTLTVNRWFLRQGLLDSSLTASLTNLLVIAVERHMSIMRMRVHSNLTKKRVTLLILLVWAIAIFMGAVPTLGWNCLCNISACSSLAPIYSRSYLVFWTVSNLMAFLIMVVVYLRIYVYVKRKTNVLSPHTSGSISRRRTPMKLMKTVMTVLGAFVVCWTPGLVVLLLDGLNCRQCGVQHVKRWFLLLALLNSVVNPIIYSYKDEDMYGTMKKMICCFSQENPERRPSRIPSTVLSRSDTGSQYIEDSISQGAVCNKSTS
Summary of the method: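 Stably transfected CHO cells, serum-starved overnight, loaded with Calcium 4 dye 1 h at 37 °C in HBSS/20 mM Hepes with 0.3% fatty-acid-free HSA. Compounds preincubated 30 min at room temperature, then cells stimulated with 10 nM LPA; intracellular Ca2+ read by fluorescence; IC50 from titration curves.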

T1 sequence (Q92633 whole entry): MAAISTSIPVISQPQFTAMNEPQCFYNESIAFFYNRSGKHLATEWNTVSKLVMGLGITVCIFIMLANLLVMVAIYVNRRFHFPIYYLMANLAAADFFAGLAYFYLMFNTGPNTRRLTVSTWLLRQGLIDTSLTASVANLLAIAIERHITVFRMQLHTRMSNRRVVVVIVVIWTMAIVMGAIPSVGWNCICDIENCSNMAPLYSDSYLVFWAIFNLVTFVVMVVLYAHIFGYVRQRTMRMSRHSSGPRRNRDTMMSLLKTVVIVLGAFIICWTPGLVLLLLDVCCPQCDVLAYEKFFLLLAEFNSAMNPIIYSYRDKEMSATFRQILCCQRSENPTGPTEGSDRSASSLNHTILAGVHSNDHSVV

Row | IC50 (human LPA1) | IC50 (human LPA3) | SMILES
1 | < 300 nM | 1000 to 50000 nM | Cc1noc(-c2ccc(-c3ccc(CC#N)cc3)cc2)c1NC(=O)O[C@H](C)c1ccccc1Cl [Compound 2-2, [5-(4′-Cyanomethyl-biphenyl-4-yl)-3-methyl-isoxazol-4-yl]-carbamic acid (R)-1-(2-chloro-phenyl)-ethyl ester]
2 | < 300 nM | > 50000 nM | Cc1noc(-c2ccc(-c3ccc(CC#N)cc3)cc2)c1NC(=O)O[C@H](C)c1ccccc1F [Compound 2-3, [5-(4′-Cyanomethyl-biphenyl-4-yl)-3-methyl-isoxazol-4-yl]-carbamic acid (R)-1-(2-fluoro-phenyl)-ethyl ester]
3 | < 300 nM | 1000 to 50000 nM | Cc1noc(-c2ccc(-c3ccc(Cc4nn[nH]n4)cc3)cc2)c1NC(=O)O[C@H](C)c1ccccc1F [Compound 2-4, {3-Methyl-5-[4′-(2H-tetrazol-5-ylmethyl)-biphenyl-4-yl]-isoxazol-4-yl}-carbamic acid (R)-1-(2-fluoro-phenyl)-ethyl ester]
4 | < 300 nM | 1000 to 50000 nM | Cc1noc(-c2ccc(-c3ccc(Cc4nn[nH]n4)cc3)cc2)c1NC(=O)O[C@H](C)c1ccccc1Cl [Compound 2-5, {3-Methyl-5-[4′-(2H-tetrazol-5-ylmethyl)-biphenyl-4-yl]-isoxazol-4-yl}-carbamic acid (R)-1-(2-chloro-phenyl)-ethyl ester]
5 | < 300 nM | > 50000 nM | Cc1noc(-c2cnc(-c3ccc(CC(=O)O)cc3)s2)c1NC(=O)O[C@H](C)c1ccccc1F [Compound 3-4, [4-(5-{4-[(R)-1-(2-Fluoro-phenyl)-ethoxycarbonylamino]-3-methyl-isoxazol-5-yl}-thiazol-2-yl)-phenyl]-acetic acid]
